How the values were obtained:
[1] = system: Nuclear hormone (NHR) receptors; test: All β-gal nuclear hormone receptor (NHR) screens; type: cell-based
Description: Receptor Binding Assays. Nuclear hormone (NHR) assays were performed by DiscoverX (Fremont, CA) on their NHR-Scan platform of cell-based protein-protein interaction assays. This platform uses a […] reporter that activates upon interaction of full-length receptor protein with steroid coactivator receptor peptides. In agonist mode, activity of CL2-57 at 10 μM was compared to maximal activity of published positive control agonists; in antagonist mode, reduction in activity with 10 μM CL2-57 from that observed at […] of published agonists was quantified.

[2] = biological target: T1, LXRβ (Homo sapiens, UniProt P55055); test: LanthaScreen TR-FRET coactivator assay LXRβ; type: biochemical
T1 construct: purchased Thermo Fisher Scientific
T1 sequence (P55055 212-460 limits assumed): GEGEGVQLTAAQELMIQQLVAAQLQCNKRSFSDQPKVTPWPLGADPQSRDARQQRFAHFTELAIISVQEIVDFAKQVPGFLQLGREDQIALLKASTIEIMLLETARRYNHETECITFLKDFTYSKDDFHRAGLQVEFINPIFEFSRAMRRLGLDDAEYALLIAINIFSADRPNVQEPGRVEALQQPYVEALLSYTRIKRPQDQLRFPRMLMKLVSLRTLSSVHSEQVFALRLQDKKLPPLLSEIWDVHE

[3] = biological target: T2, PPARγ (Homo sapiens, UniProt P37231); test: LanthaScreen TR-FRET coactivator assay PPARγ (antagonism of pioglitazone); type: biochemical
T2 construct: purchased Thermo Fisher Scientific
T2 sequence (P37231 232-505 limits assumed): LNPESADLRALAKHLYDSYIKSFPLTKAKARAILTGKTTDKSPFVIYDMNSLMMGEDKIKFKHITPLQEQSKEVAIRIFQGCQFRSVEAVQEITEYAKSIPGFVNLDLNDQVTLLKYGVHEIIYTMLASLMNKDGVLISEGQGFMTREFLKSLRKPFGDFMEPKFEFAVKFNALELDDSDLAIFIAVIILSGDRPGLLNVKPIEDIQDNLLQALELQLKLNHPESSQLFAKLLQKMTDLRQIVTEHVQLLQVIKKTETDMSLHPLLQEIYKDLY
Description: TR-FRET Receptor Binding Assays. LanthaScreen” TR-FRET coactivator assay kits for LXRβ (Thermo Fisher Scientific) and PPARγ (Thermo Fisher Scientific) were performed according to manufacturer instructions using low-binding black 384-well plates and Synergy Neo2 plate reader. For the PPARγ assay, standardization was first performed with control agonist (pioglitazone), then run in two antagonist assays: dose-response of pioglitazone with or without a single concentration of CL2-57, and dose-response of CL2-57 cotreated with a single concentration (500 nM) of pioglitazone. Each compound dose was performed in quadruplicate on each plate, and each experiment was performed in triplicate.

[4] = system: ABCA1 mRNA; test: ABCA1 mRNA - HepG2 (qRT-PCR); type: cell-based, human; details: Homo sapiens; ABCA1 mRNA-HepG2 assay (Table 7)
From the text: qRT-PCR. For cell samples, treated cells were lysed with RLT plus lysis buffer (Qiagen). RNA was isolated with Qiagen RNEASY® Plus columns per manufacturer instructions, then reverse-transcribed to cDNA using […]® III Reverse Transcriptase (200 U/μL, Invitrogen) per supplier protocol. qPCR experiments were either performed with TAQMAN® gene expression master mix (Invitrogen) on a StepOne™ qPCR instrument or with […]® SYBR® Green SuperMix (Quanta Biosciences) on CFX Connect™ Real-Time PCR Detection System (BioRad), with fold-change quantified by ΔΔCt. For animal samples, 100 mg tissue was homogenized in 1 mL acid-guanidinium-phenol based reagent sold under the tradename TRIZOL® (Ambion), mixed vigorously in chloroform, and separated by centrifugation. Aqueous layer containing RNA was added to Qiagen RNEASY® Plus column; remaining stops were as described above for cell lysates.

[5] = system: ABCA1; test: ABCA1 firefly reporter assay in CCF-001 cells; type: cell-based; details: ABCA1 firefly reporter assay in CCF-001 cells (Table 8)
[6] = system: ABCA1; test: ABCA1-linked luciferase assay in HepG2 cells; type: cell-based; details: Homo sapiens; HepG2 liver cells; Example 2, compounds active in ABCA1-Luc assay; read-out: EC50 in HepG2 liver cells
Description: Luciferase. HepG2 cells (RRID:CVCL 0027) purchased from ATCC and used without further validation were stably transfected with pGreenFire1-LXRE-in-ABCA1 plasmid, which contains the ABCA1 promoter sequence linked to a luciferase response element, then selected over multiple generations with puromycin and frozen in liquid N2. For assays, transfected cells were plated 24 hours in medium (Gibco) containing charcoal-stripped serum (Gemini), followed by a 24-hour treatment. Cells were lysed with passive lysis buffer (Promega), frozen at −80° C. for 15 minutes, and shaken at room temperature for 2 hours before quantification with luciferase assay system (Promega) on a Synergy Neo2 plate reader.

[7] = system: E3/4FAD mice; test: E3/4FAD (EFAD) mice treated with CL3-3; type: in vivo, mouse
Description: A longer-term study was conducted in EFAD mice, which express the same five human AD mutations as 5×FAD mice and have also undergone targeted replacement of the mouse Apoe gene with one of the human APOE alleles: ε2, ε3, or ε4. In this study, EFAD mice with heterozygous ε3/ε4 alleles (E3/4FAD) were treated from 4 months of age until 6 months of age with CL3-3 (100 mg/kg/day in hydrogel replacement of drinking water) or vehicle.
Multiple readouts of AD-related pathology were conducted with subsets of these mice. Brain regions were first analyzed via ELISA for levels of soluble, oligomeric Aβ (oAβ), which is hypothesized to be the toxic form of amyloid that underlies downstream pathology and clinical presentation associated with AD. In E3/4FAD mice, oAβ levels decreased in the hippocampus in male mice and in the cerebral cortex in female mice. Treatment with CL3-3 also was synaptoprotective in cerebral cortex regions, particularly in male mice. Expression of synaptic proteins drebrin and PSD95 were increased in male E3/4FAD mice treated with CL3-3, as determined by western blot analysis.
The remaining subset of brain hemispheres from the treated E3/4FAD mice were fixed and analyzed by staining with thioflavin S (Thio-S). Thio-S is a fluorescent dye that binds to abnormally folded protein aggregates (i.e., amyloid).

[8] = system: 5×FAD mice; test: 5×FAD mice treated with CL3-3; type: in vivo, mouse; details: female 5×FAD mice, 10 mg/kg PO daily, 10 days
Description: To evaluate preclinical efficacy, CL3-3 was studied in 5×FAD mice. […] Female 5×FAD mice (JAX) at 16 weeks of age were treated for 10 days with either CL3-3 (10 mg/kg PO gavage daily) or vehicle. Upon completion of treatment, mouse whole brain hemispheres were analyzed for mRNA expression levels of pro-inflammatory markers including CCL2, CCL3, CCL5 CXCL10, IL-6, COX2 and NOS2. Plasma from the same mice was analyzed.

[9] = system: CD1 mice; test: CD1 mice, three daily p.o. treatments, LXR agonist adverse effects; type: in vivo, mouse; details: 10 mg/kg p.o., three days
From the text: Neutrophil Counts. […] After final dose, blood samples were run on an Advia 120 analyzer (Bayer) for neutrophil counts.

EC50 [4] [nM] | EC50 [5] [nM] | SMILES | further results
> 5000 | 8420 | CCOC(=O)c1cc(N)cc(NC(=O)c2sc(Cl)cc2S(=O)(=O)N(C)c2ccc(OCC)c(OCC)c2)c1 [CL2-191, Ethyl 3-amino-5-(5-chloro-3-(N-(3,4-diethoxyphenyl)-N-methylsulfamoyl)thiophene-2-carboxamido)benzoate] | –
300 | 99 | CCOC(=O)c1cc(Cl)cc(NC(=O)c2sc(Cl)cc2S(=O)(=O)N(C)c2ccc(OCC)c(OC)c2)c1 [CL3-3, Ethyl 3-chloro-5-(5-chloro-3-(N-(4-ethoxy-3-methoxyphenyl)-N-methylsulfamoyl)thiophene-2-carboxamido) benzoate] | EC50 [6]: 300 nM; % area stained by Thio-S ([7]; all measured brain regions, males and females): decreased; Expression of synaptic proteins drebrin and PSD95 ([7]; male E3/4FAD mice, western blot): increased; Brain mRNA levels of inflammatory markers (CCL2, CCL3, CCL5, CXCL10, IL-6, COX2, NOS2) [8]: reduced; Circulating TG levels [8]: not significantly altered
1200 | 530 | CCOC(=O)c1cc(Cl)cc(NC(=O)c2sc(Cl)cc2S(=O)(=O)N(C)c2ccc(OC)c(OC)c2)c1 [CL3-9, Ethyl 3-chloro-5-(5-chloro-3-(N-(3,4-dimethoxyphenyl)-N-methylsulfamoyl)thiophene-2-carboxamido)benzoate] | –
1100 | 339 | CCOc1ccc(N(C)S(=O)(=O)c2cc(Cl)sc2C(=O)Nc2cc(Cl)cc(C(=O)OC)c2)cc1OC [CL3-10, Methyl 3-chloro-5-(5-chloro-3-(N-(4-ethoxy-3-methoxyphenyl)-N-methylsulfamoyl)thiophene-2-carboxamido)benzoate] | –
420 | 66 | CCOc1ccc(N(C)S(=O)(=O)c2cc(Cl)sc2C(=O)Nc2cc(Cl)cc(C(=O)OCCOC)c2)cc1OC [CL3-11, 2-Methoxyethyl 3-chloro-5-(5-chloro-3-(N-(4-ethoxy-3-methoxyphenyl)-N-methylsulfamoyl)thiophene-2-carboxamido)benzoate] | –
420 | 138 | CCOc1ccc(N(C)S(=O)(=O)c2cc(Cl)sc2C(=O)Nc2cc(Cl)cc(C(=O)OCCOCCOC)c2)cc1OC [CL3-12, 2-(2-Methoxyethoxy) ethyl 3-chloro-5-(5-chloro-3-(N-(4-ethoxy-3-methoxyphenyl)-N-methylsulfamoyl)thiophene-2-carboxamido)benzoate] | –
240 | 29 | CCOC(=O)c1cc(F)cc(NC(=O)c2sc(Cl)cc2S(=O)(=O)N(C)c2ccc(OCC)c(OC)c2)c1 [GR1-053, Ethyl 3-(5-chloro-3-(N-(4-ethoxy-3-methoxyphenyl)-N-methylsulfamoyl)thiophene-2-carboxamido)-5-fluorobenzoate] | –
3300 | 1490 | CCOc1ccc(N(C)S(=O)(=O)c2cc(Cl)sc2C(=O)Nc2cccc(C(=O)OC)c2)cc1 [KB7-123, Methyl 3-(5-chloro-3-(N-(4-ethoxyphenyl)-N-methylsulfamoyl)thiophene-2-carboxamido)benzoate] | –

More lines, now with the values behind:

SMILES | EC50 [4] [nM] | EC50 [5] [nM] | further results
CCOc1ccc(N(C)S(=O)(=O)c2cc(Cl)sc2C(=O)Nc2cccc(C(=O)O)c2)cc1OCC [CL2-129, 3-(5-Chloro-3-(N-(3,4-diethoxyphenyl)-N-methylsulfamoyl)thiophene-2-carboxamido)benzoic acid] | – | – | Activity in all of the β-gal screens [1]: inactive; Activity in LXRβ TR-FRET binding assay [2]: inactive; Activity in PPARγ TR-FRET binding assay [3]: inactive
CCOc1ccc(N(C)S(=O)(=O)c2cc(Cl)sc2C(=O)Nc2cccc(C(=O)OCCOC)c2)cc1OCC [CL2-167, 2-Methoxyethyl 3-(5-chloro-3-(N-(3,4-diethoxyphenyl)-N-methylsulfamoyl)thiophene-2-carboxamido) benzoate] | 5000 | 2190 | –
CCOc1ccc(N(C)S(=O)(=O)c2cc(Cl)sc2C(=O)Nc2cccc(C(=O)OCCOCCOC)c2)cc1OCC [CL2-168, 2-(2-Methoxyethoxy) ethyl 3-(5-chloro-3-(N-(3,4-diethoxyphenyl)-N-methylsulfamoyl)thiophene-2-carboxamido) benzoate] | 3600 | 1360 | –
CCOC(=O)c1cccc(NC(=O)c2sc(Cl)cc2S(=O)(=O)N(C)c2ccc(N(C)C)cc2)c1 [CL2-181, Ethyl 3-(5-chloro-3-(N-(4-(dimethylamino)phenyl)-N-methylsulfamoyl)thiophene-2-carboxamido)benzoate] | 5000 | 4990 | –
CCOC(=O)c1cccc(NC(=O)c2sc(Cl)cc2S(=O)(=O)N(C)c2cnc(OCC)c(F)c2)c1 [CL2-184, Ethyl 3-(5-chloro-3-(N-(6-ethoxy-5-fluoropyridin-3-yl)-N-methylsulfamoyl)thiophene-2-carboxamido)benzoate] | 4500 | 4950 | –
CCOC(=O)c1cc(Cl)cc(NC(=O)c2sc(Cl)cc2S(=O)(=O)N(C)c2ccc(OCC)c(OCC)c2)c1 [CL2-187, Ethyl 3-chloro-5-(5-chloro-3-(N-(3,4-diethoxyphenyl)-N-methylsulfamoyl)thiophene-2-carboxamido) benzoate] | 810 | 247 | –
O=S(=O)(c1ccccc1)N(CC(F)(F)F)c1ccc(C(O)(C(F)(F)F)C(F)(F)F)cc1 [Compound T0901317, reference compound] | – | – | Circulating neutrophil levels [9]: reduced; Plasma TG [9]: increased
